Earlier results as cited in patent publication US10485764B2, “Lyophilized pharmaceutical compositions” (Otsuka Pharmaceutical Co., Ltd., priority 2015, dated 2019).

Test system: HDAC
Details: in vitro or in vivo, from literature
In the case of `O=C(/C=C/c1cccc(C(=O)NO)c1)NO` [CBHA, m-carboxy-cinnamic acid bishydroxamic acid], the HDAC inhibition is listed as “micromolar concentration or lower”.
In the case of `C/C=C1\NC(=O)[C@H]2CSSCC/C=C/[C@H](CC(=O)N[C@H](C(C)C)C(=O)N2)OC(=O)[C@H](C(C)C)NC1=O` [FR901228], the HDAC inhibition is given as “micromolar concentrations”.
For depudecin, the HDAC inhibition is given as “micromolar concentrations”.
For trichostatin A [TSA], the HDAC inhibition is listed as “potent inhibitor of mammalian HDAC”.
